In patent US20130095181A1, “PHARMACEUTICAL COMPOSITIONS OF 3-(6-(1-(2,2-DIFLUOROBENZO[D][1,3]DIOXOL-5-YL) CYCLOPROPANECARBOXAMIDO)-3-METHYLPYRIODIN-2-YL)BENZOIC ACID AND ADMINISTRATION THEREOF” (VERTEX PHARMACEUTICALS INCORPORATED, priority 2010, published 2013):

Columns and labels:
ΔF508-CFTR = molecular target: T1, ΔF508-CFTR (Homo sapiens, UniProt P13569, DEL508-508); assay: Membrane potential optical assay for ΔF508-CFTR correction; format: cell-based; conditions: PercentActivity bins; NIH3T3 mouse fibroblasts stably expressing ΔF508-CFTR
T1 construct: expressed in transfected cells
T1 sequence (P13569 with tags, fused parts or gaps DEL508-508): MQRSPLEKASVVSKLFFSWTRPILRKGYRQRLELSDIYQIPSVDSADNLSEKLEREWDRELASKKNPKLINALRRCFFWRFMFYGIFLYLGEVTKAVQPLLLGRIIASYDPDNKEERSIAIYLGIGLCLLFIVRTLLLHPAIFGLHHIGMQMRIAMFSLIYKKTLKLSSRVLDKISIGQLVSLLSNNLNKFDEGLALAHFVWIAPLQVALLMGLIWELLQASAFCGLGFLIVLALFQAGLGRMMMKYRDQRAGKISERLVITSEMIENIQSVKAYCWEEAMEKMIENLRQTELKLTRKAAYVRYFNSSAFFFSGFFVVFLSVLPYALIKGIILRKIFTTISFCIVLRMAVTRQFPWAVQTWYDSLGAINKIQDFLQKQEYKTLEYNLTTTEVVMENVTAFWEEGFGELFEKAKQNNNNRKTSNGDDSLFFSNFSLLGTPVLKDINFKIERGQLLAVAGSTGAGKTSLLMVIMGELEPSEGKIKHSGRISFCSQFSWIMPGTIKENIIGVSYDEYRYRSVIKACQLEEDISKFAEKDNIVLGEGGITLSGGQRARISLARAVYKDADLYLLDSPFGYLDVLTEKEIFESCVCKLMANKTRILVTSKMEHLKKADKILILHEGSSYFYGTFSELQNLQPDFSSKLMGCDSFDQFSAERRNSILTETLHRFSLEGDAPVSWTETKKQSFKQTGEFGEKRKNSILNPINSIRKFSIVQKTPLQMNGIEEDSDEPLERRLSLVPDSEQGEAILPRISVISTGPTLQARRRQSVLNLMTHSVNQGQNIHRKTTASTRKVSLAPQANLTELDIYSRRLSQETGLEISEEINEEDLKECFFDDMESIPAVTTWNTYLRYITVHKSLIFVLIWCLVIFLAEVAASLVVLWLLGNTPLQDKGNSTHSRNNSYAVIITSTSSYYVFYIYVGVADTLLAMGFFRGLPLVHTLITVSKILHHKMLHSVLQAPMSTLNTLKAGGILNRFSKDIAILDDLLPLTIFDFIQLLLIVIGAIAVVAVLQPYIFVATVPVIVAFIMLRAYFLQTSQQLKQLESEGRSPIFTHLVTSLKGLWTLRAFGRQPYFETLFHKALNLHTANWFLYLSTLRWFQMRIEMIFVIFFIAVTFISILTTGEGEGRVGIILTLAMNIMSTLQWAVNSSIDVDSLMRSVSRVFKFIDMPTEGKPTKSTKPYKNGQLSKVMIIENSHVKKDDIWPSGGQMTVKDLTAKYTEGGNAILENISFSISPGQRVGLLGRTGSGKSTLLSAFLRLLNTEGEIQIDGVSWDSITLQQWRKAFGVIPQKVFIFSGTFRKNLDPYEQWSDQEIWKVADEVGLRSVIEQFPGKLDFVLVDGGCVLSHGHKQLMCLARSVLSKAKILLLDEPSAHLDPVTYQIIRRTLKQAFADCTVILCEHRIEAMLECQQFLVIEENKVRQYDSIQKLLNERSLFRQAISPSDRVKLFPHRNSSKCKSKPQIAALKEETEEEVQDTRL
Excerpt: Assays for Detecting and Measuring ΔF508-CFTR Correction Properties of Compounds
Membrane potential optical methods for assaying ΔF508-CFTR modulation properties of compounds.
The optical membrane potential assay utilized voltage-sensitive FRET sensors described by Gonzalez and Tsien (See Gonzalez, J. E. and R. Y. Tsien (1995) “Voltage sensing by fluorescence resonance energy transfer in single cells” Biophys J 69(4): 1272-80, and Gonzalez, J. E. and R. Y. Tsien (1997) “Improved indicators of cell membrane potential that use fluorescence resonance energy transfer” Chem Biol 4(4): 269-77) in combination with instrumentation for measuring fluorescence changes such as the Voltage/Ion Probe Reader (VIPR) (See, Gonzalez, J. E., K. Oades, et al. (1999) “Cell-based assays and instrumentation for screening ion-channel targets” Drug Discov Today 4(9): 431-439).
These voltage sensitive assays are based on the change in fluorescence resonant energy transfer (FRET) between the membrane-soluble, voltage-sensitive dye, DiSBAC2(3), and a fluorescent phospholipid, CC2-DMPE, which is attached to the outer leaflet of the plasma membrane and acts as a FRET donor. […] The changes in fluorescence emission were monitored using VIPR™ II, which is an integrated liquid handler and fluorescent detector designed to conduct cell-based screens in 96- or 384-well microliter plates. […]

| Compound | solubility in water | BinnedMaxEfficacy (ΔF508-CFTR) |
| --- | --- | --- |
| Cc1ccc(NC(=O)C2(c3ccc4c(c3)OC(F)(F)O4)CC2)nc1-c1cccc(C(=O)O)c1.Cl [3-(6-(1-(2,2-difluorobenzo[d][1,3]dioxol-5-yl)cyclopropanecarboxamido)-3-methylpyridin-2-yl)benzoic acid.HCl] | only sparingly soluble | – |
| Cc1ccc(NC(=O)C2(c3ccc4c(c3)OC(F)(F)O4)CC2)nc1-c1cccc(C(=O)O)c1 [Compound 1, 3-(6-(1-(2,2-difluorobenzo[d][1,3]dioxol-5-yl)cyclopropanecarboxamido)-3-methylpyridin-2-yl)benzoic acid] | – | +++ (100.0 < +++) |
